EP2340832A1, “Morphinan-6-one compounds for the treatment or prevention of neurodegenerative diseases” (Universität Innsbruck, priority 2009, dated 2011)
Where two headings read alike, the source gives them in different places.

Assays:
[1] = target: T1, k opioid receptors (Cavia porcellus, UniProt P41144); test: Opioid receptor binding assay, [3H]U69,593, guinea pig brain membranes
T1 construct: Membrane fractions were prepared from Sprague-Dawley rat or guinea pig brains; from tissue; host or cells: guinea pig brain (without cerebella) membranes
Method: Briefly, brains without cerebella were homogenised on ice in 5 volumes of ice-cold 50 mM Tris-HCI buffer (pH 7.4) and diluted in 30 volumes of the same buffer. After centrifugation at 40,000 x g for 20 min at 4°C, the pellets were resuspended in 30 volumes of Tris-HCI buffer and incubated at 37 °C for 30 min (rat brain) or for 10 min (guinea pig brain). The centrifugation step was repeated and the final pellets were resuspended in 5 volumes of 50 mM Tris-HCI buffer (pH 7.4) containing 0.32 M sucrose to give a protein concentration of 4 - 6 mg/ml. Protein concentration was determined by the method of Bradford using bovine serum albumin as standard.
Binding experiments were performed in 50 mM Tris-HCI buffer (pH 7.4) in a final volume of 1 ml containing 0.3 - 0.5 mg protein and different concentrations of the compounds. […] Guinea pig brain membranes were incubated with [^3H]U69,593 (30 min, 30 °C). Non-specific binding was determined in the presence of 10 µM unlabeled naloxone. […] Inhibition constant (Ki) values were calculated from competition binding curves using GraphPad Prism (San Diego, CA, USA) program. The values are expressed as the mean ± S.E.M of 2-4 independent experiments, each performed in duplicate.
The morphinan-6-one compounds of the present invention were evaluated in in vitro receptor binding assays for their interaction abilities with µ, δ and k opioid receptors. […] The affinities of the compounds at k opioid receptors were determined by displacement of [^3H]U69,593 using guinea pig brain membranes.

[2] = target: T2, σ receptors labelled by [^3H](+)-pentazocine (σ1) (Cavia porcellus, UniProt Q60492); test: Sigma receptor binding assay, [3H](+)-pentazocine; parameters: species or system guinea pig
T2 construct: from tissue; host or cells: guinea pig brain membranes
Method: (§1) Filters were washed three times with 5 ml of ice-cold 10 mM Tris-HCI buffer (pH 8). The bound radioactivity was measured by liquid scintillation counting (Beckman Coulter™ LS6500). […] The values are expressed as the mean ± S.E.M of 2 - 4 independent experiments, each performed in duplicate.

[3] = target: σ receptors labelled by [^3H]DTG (σ1 + σ2); test: Sigma receptor binding assay, [3H]DTG; conditions: read-out: IC50 ± SEM [^3H]DTG (σ1 + σ2); guinea pig brain membranes; compounds 1-5 tested up to 10 µM
Method: as §1

[4] = test system: C57BL/6N female mice; test: T-maze continuous alternation; conditions: for spontaneous alternation rate: normal mice
[5] = target: T3, δ receptor (Rattus norvegicus, UniProt P33533); test: [35S]GTPγS functional assay, rat brain membranes, δ receptor; assay type: biochemical, Sprague-Dawley rat
T3 construct: Membrane fractions were prepared from Sprague-Dawley rat or guinea pig brains; from tissue; host or cells: Sprague-Dawley rat brain (without cerebella) membranes
Method: (§2) Membrane fractions were prepared from Sprague-Dawley rat or guinea pig brains as described above. To determine binding of [^35S]GTPyS, rat or guinea pig brain membranes (10 µg of protein) were incubated for 60 min at 30 °C in Tris-EGTA buffer (50 mM Tris-HCl buffer, 3 mM MgCl2, 1 mM EGTA, […], pH 7.4) containing 30 µM GDP, 0.05 nM [^35S]GTPyS and appropriate concentrations of the respective compounds according to the present invention in a final volume of 1 ml. The reaction was terminated by vacuum filtration through Whatman GF/B glass fibre filters. Filters were washed three times with ice-cold 50 mM Tris-HCI buffer (pH 7.4) and the bound radioactivity was measured by liquid scintillation counting (Beckman Coulter™ LS6500). Basal activity was determined by subtracting the non-specific binding (measured in the presence of 100 µM unlabelled GTPyS) from the total binding (measured in the absence of the compound).
(§3) Stimulation produced by the compound is given as percentage of the basal activity (given as 100%). Functional data, EC50 (nM; half maximal effective concentration) and maximal stimulation Emax (% stimulation over basal level; maximal effective concentration), were calculated by using nonlinear regression analysis and sigmoidal curve fitting GraphPad Prism (San Diego, CA, USA) program. The values are expressed as the mean ± S.E.M of at least 3 independent experiments, each performed in triplicate. Statistical analysis was carried out using SPSS software (SPSS Inc., Chicago, lL, USA) and the Student T-test was used to compare different assay conditions. A ρ value < 0.05 was considered statistically significant.

[6] = target: T4, K receptor (Cavia porcellus, UniProt P41144); assay type: biochemical, guinea pig
T4 construct: Membrane fractions were prepared from Sprague-Dawley rat or guinea pig brains; from tissue; host or cells: guinea pig brain (without cerebella) membranes

[7] = target: µ opioid receptor (Rattus norvegicus, UniProt P33535); test: [35S]GTPγS functional assay, rat brain membranes, µ receptor; assay type: biochemical, Sprague-Dawley rat; parameters: Membrane fractions were prepared from Sprague-Dawley rat or guinea pig brains; from tissue; host or cells: Sprague-Dawley rat brain (without cerebella) membranes
Method: as §2, §3

[8] = scopolamine 0.033 µmol, compound 0.01 and 0.1 µmol i.c.v.

T1 sequence (P41144 whole entry): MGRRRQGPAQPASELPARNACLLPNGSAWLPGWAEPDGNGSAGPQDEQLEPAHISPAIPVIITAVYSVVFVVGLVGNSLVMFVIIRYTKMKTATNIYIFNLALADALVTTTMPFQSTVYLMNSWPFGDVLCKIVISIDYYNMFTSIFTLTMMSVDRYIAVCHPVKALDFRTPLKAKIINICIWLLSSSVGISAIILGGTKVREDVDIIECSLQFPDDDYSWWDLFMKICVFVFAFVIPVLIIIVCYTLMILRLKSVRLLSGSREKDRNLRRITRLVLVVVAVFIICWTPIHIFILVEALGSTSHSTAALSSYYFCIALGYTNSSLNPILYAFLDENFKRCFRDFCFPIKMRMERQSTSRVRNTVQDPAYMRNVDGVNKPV
T4 sequence (P41144 whole entry): as above
Chain of µ opioid receptor (P33535 whole entry): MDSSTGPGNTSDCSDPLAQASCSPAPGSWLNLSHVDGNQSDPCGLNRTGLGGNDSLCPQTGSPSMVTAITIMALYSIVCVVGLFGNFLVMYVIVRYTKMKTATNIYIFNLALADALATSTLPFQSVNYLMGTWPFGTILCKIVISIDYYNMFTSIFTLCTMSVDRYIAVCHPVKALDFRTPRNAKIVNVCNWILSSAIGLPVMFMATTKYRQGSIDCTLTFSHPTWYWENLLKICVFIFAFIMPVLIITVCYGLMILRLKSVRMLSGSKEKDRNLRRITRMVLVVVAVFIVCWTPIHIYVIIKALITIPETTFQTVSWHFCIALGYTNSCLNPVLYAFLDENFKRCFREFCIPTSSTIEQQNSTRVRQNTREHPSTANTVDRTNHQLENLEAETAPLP
T3 sequence (P33533 whole entry): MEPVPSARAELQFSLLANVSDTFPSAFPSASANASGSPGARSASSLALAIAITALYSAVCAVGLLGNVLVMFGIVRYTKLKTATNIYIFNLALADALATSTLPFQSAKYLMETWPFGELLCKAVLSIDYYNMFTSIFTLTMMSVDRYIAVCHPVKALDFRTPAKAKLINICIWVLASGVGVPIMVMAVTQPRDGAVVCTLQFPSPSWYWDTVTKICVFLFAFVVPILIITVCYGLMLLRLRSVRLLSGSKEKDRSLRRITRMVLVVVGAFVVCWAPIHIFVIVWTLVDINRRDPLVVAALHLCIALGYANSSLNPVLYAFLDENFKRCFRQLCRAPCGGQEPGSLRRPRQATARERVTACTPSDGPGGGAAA
T2 sequence (Q60492 whole entry): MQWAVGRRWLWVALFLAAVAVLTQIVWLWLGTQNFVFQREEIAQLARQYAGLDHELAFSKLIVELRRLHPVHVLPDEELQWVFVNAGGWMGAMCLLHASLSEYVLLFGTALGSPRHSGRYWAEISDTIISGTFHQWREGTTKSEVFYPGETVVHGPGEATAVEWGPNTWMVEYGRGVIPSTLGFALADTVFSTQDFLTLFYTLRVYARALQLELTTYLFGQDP

O=CN1CC[C@]23CC(=O)CC[C@H]2[C@H]1Cc1c(O)ccc(O)c13 [Compound 1, 1,4-dihydroxy-N-formylmorphinan-6-one]
Ki [1]: > 10 µM | binding to opioid receptor K (in words) [1]: does not bind | Ki ([1]; read-out: Opioid binding affinities Ki κ receptor, [3H]U69,593, guinea pig brain membranes): > 10 µM | IC50 [2]: > 10 µM | IC50 [3]: > 10 µM | spontaneous alternation rate ([4]; 0.01 and 0.1 µmol i.c.v.): did not influence alternation | effect on scopolamine-increased running time [4, 8]: did not influence | effect on scopolamine-induced reduction in alternation [4, 8]: abolished the cholinergic impairment of alternation

C=CCN1CC[C@]23CC(=O)CC[C@H]2[C@H]1Cc1cccc(OC)c13 [Compound 4, 4-methoxy-N-allylmorphinan-6-one]
Ki [1]: 0.0331 µM | [35S]GTPγS binding on co-incubation with naltrindole versus antagonist alone ([5]; 10 µM each): did not produce any significant increase | effect on [35S]GTPγS binding stimulated by SNC 80 ([5]; compound 10 µM, SNC 80 10 µM): did not cause any significant changes | [35S]GTPγS binding in the presence of the compound alone [6]: no increase | [35S]GTPγS binding on co-incubation with Nor-BNI versus antagonist alone [6]: did not produce any significant increase | effect on [35S]GTPγS binding stimulated by U69,593 [6]: slight, but significant decrease | IC50 [2]: > 0.01 µM | IC50 [3]: > 10 µM | spontaneous alternation rate ([4]; 0.05 µmol i.c.v.): decreased spontaneous alternation rate | spontaneous alternation rate ([4]; lower (0.001; 0.01 and 0.025 µmol) or higher doses (0.1 µmol) i.c.v.): did not exert a significant effect | effect on scopolamine-induced reduction in alternation ([4]; scopolamine 0.033 µmol, compound 0.01 µmol i.c.v., not shown): ineffective | effect on scopolamine-induced reduction in alternation ([4]; scopolamine 0.033 µmol, compound 0.05 µmol i.c.v.): ameliorated | function at the µ opioid receptor [7]: antagonistic function | [35S]GTPγS binding on co-incubation with cyprodime versus antagonist alone ([7]; 10 µM each, rat brain membranes): did not produce any significant increase | effect on [35S]GTPγS binding stimulated by DAMGO ([7]; compound 10 µM, DAMGO 10 µM, rat brain membranes): significantly decreased | [35S]GTPγS binding in the presence of the compound alone ([7]; rat brain membranes, compared with DAMGO): no increase
